Results published in PubChem BioAssay (NCI).
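Interpolation was linear, between the two tested concentrations surrounding the appropriate level; five concentrations were tested over 48 hours in 96-well plates. GI50 = concentration required for 50% inhibition of growth. TGI: concentration producing complete growth inhibition.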

Key:
Assay in all cases: NCI tumour cell line growth inhibition, 48 h
[1] = tested on: HT29 colon
[2] = tested on: KM12 colon
[3] = tested on: SNB-75 CNS
[4] = tested on: EKVX NSCLC
[5] = tested on: HL-60(TB) leukemia
[6] = tested on: SW-620 colon
[7] = tested on: U251 CNS
[8] = tested on: NCI-H226 lung
[9] = tested on: K-562 leukemia
[10] = tested on: HOP-92 NSCLC
[11] = tested on: SK-MEL-28 melanoma
[12] = tested on: ACHN renal
[13] = tested on: MDA-MB-435
[14] = tested on: HCT-15 colon
[15] = tested on: HCC-2998 colon
[16] = tested on: MDA-MB-231 breast
[17] = tested on: T-47D breast
[18] = tested on: SNB-19 CNS
[19] = tested on: HCT-116 colon
[20] = tested on: SF-268 CNS
[21] = tested on: MALME-3M melanoma
[22] = tested on: TK-10 renal
[23] = tested on: UACC-257 melanoma
[24] = tested on: SK-OV-3 ovarian
[25] = tested on: HOP-62 NSCLC
[26] = tested on: A498 renal
[27] = tested on: HS 578T breast
[28] = tested on: NCI-H460 lung
[29] = tested on: SF-295 CNS
[30] = tested on: RXF 393 renal
[31] = tested on: OVCAR-8 ovarian
[32] = tested on: COLO 205 colon
[33] = tested on: SR leukemia
[34] = tested on: PC-3 prostate
[35] = tested on: A549 NSCLC
[36] = tested on: 786-0 renal
[37] = tested on: UO-31 renal
[38] = tested on: OVCAR-4 ovarian
[39] = tested on: MOLT-4 leukemia
[40] = tested on: UACC-62 melanoma
[41] = tested on: CAKI-1 renal
[42] = tested on: SK-MEL-2 melanoma
[43] = tested on: NCI-H522 lung
[44] = tested on: MCF7 breast
[45] = tested on: RPMI-8226 leukemia
[46] = tested on: M14 melanoma
[47] = tested on: LOX IMVI melanoma
[48] = tested on: OVCAR-5 ovarian
[49] = tested on: BT-549 breast
[50] = tested on: SN12C renal
[51] = tested on: IGROV1 ovarian
[52] = tested on: NCI/ADR-RES ovarian
[53] = tested on: SF-539 CNS
[54] = tested on: SK-MEL-5 melanoma
[55] = tested on: CCRF-CEM leukemia
[56] = tested on: DU-145 prostate

`O=C1C(N2CCN(c3ccccc3)CC2)=C(Cl)C(=O)c2ncccc21` was tested, and the GI50 [1] was 12 µM, the TGI [1] was 27.3 µM and the GI50 [2] was 20.7 µM. The TGI [2] was 43.6 µM, the GI50 [3] was 17.5 µM and the TGI [3] was 38 µM. It also gave a GI50 [4] of 1.73 µM, a TGI [4] of 3.38 µM and a GI50 [5] of 1.36 µM. The TGI [5] was 3.94 µM, the GI50 [6] was 1.67 µM and the TGI [6] was 3.89 µM. The GI50 [7] was 10.3 µM, the TGI [7] was 22.7 µM and the GI50 [8] was 14.3 µM. The TGI [8] was 31.9 µM, the GI50 [9] was 2.04 µM and the TGI [9] was 5.51 µM. It also gave a GI50 [10] of 1.49 µM, a TGI [10] of 2.93 µM and a GI50 [11] of 3.31 µM. The TGI [11] was 10.3 µM, the GI50 [12] was 2.21 µM and the TGI [12] was 5.8 µM. For the same compound, the GI50 [13] was 1.77 µM, the TGI [13] was 3.29 µM and the GI50 [14] was 2.08 µM. The TGI [14] was 6.22 µM, the GI50 [15] was 12 µM and the TGI [15] was 24.9 µM. For the same compound, the GI50 [16] was 1.68 µM, the TGI [16] was 3.21 µM and the GI50 [17] was 1.76 µM. For the same compound, the TGI [17] was 3.95 µM, the GI50 [18] was 16.1 µM and the TGI [18] was 30.6 µM. For the same compound, the GI50 [19] was 1.73 µM, the TGI [19] was 3.11 µM and the GI50 [20] was 15.2 µM. It also gave a TGI [20] of 29.6 µM, a GI50 [21] of 1.95 µM and a TGI [21] of 4.25 µM. The GI50 [22] was 12.4 µM, the TGI [22] was 25.5 µM and the GI50 [23] was 2.21 µM. The TGI [23] was 6.22 µM, the GI50 [24] was 13.8 µM and the TGI [24] was 29.9 µM. For the same compound, the GI50 [25] was 17.3 µM, the TGI [25] was 31.4 µM and the GI50 [26] was 13.5 µM. It also gave a TGI [26] of 34 µM, a GI50 [27] of 13.6 µM and a TGI [27] of 47.4 µM. It also gave a GI50 [28] of 6.73 µM, a TGI [28] of 22.4 µM and a GI50 [29] of 14.2 µM. The TGI [29] was 27.3 µM, the GI50 [30] was 1.87 µM and the TGI [30] was 3.43 µM. It also gave a GI50 [31] of 4.72 µM, a TGI [31] of 17.6 µM and a GI50 [32] of 4.53 µM. It also gave a TGI [32] of 17.1 µM, a GI50 [33] of 1.89 µM and a TGI [33] of 6.42 µM. The GI50 [34] was 9.22 µM, the TGI [34] was 23.1 µM and the GI50 [35] was 16.5 µM. The TGI [35] was 32.6 µM, the GI50 [36] was 6.43 µM and the TGI [36] was 18.8 µM. The GI50 [37] was 1.91 µM, the TGI [37] was 4.3 µM and the GI50 [38] was 1.79 µM. The TGI [38] was 3.44 µM, the GI50 [39] was 1.97 µM and the TGI [39] was 5.38 µM. It also gave a GI50 [40] of 3.43 µM, a TGI [40] of 12.4 µM and a GI50 [41] of 5.5 µM. The TGI [41] was 18.2 µM, the GI50 [42] was 11.2 µM and the TGI [42] was 23.6 µM. It also gave a GI50 [43] of 1.73 µM, a TGI [43] of 3.55 µM and a GI50 [44] of 1.65 µM. It also gave a TGI [44] of 3.6 µM, a GI50 [45] of 2.1 µM and a TGI [45] of 5.37 µM. It also gave a GI50 [46] of 3.92 µM, a TGI [46] of 14.7 µM and a GI50 [47] of 1.59 µM. It also gave a TGI [47] of 3.07 µM, a GI50 [48] of 16.6 µM and a TGI [48] of 32 µM. It also gave a GI50 [49] of 10.2 µM, a TGI [49] of 21.8 µM and a GI50 [50] of 4.97 µM. The TGI [50] was 17.8 µM, the GI50 [51] was 3.48 µM and the TGI [51] was 12.3 µM. For the same compound, the GI50 [52] was 4.33 µM, the TGI [52] was 20.7 µM and the GI50 [53] was 6.96 µM. It also gave a TGI [53] of 20 µM, a GI50 [54] of 13.1 µM and a TGI [54] of 25.7 µM. For the same compound, the GI50 [55] was 2.33 µM, the TGI [55] was 6.65 µM and the GI50 [56] was 11.3 µM. The TGI [56] was 23.6 µM.
